Experiments:
[1] = target: HCV NS5B RNA-dependent RNA polymerase (Hepatitis C virus genotype 1a, UniProt P27958); settings: cited from earlier work
[2] = Solubility of Compound (1) in physiological pH range; thermodynamic solubility; type: physicochemical; settings: aqueous buffer, thermodynamic from solid; physiological pH range of 2-6.8
Method: Doses of Compound (1) up to 400 to 600 mg per dose may be required to be delivered to obtain exposures necessary for sufficient efficacy in vivo. Based on thermodynamic solubility of Compound (1), solubility of 0.005-0.01 mg/ml is estimated for Compound (1) sodium salt.

[3] = Powder dissolution testing in pH 6.8 buffer, USP Type II Paddle apparatus; type: physicochemical; settings: 60 minutes
[4] = Physical and chemical stability under accelerated storage conditions; type: physicochemical
Method: The glass transition temperature of the amorphous form of Compound (1) sodium salt is >200° C., which is quite atypical for pharmaceutical active materials and can be considered an unexpected finding.

HCV NS5B RNA-dependent RNA polymerase, sequence (P27958 2421-3011): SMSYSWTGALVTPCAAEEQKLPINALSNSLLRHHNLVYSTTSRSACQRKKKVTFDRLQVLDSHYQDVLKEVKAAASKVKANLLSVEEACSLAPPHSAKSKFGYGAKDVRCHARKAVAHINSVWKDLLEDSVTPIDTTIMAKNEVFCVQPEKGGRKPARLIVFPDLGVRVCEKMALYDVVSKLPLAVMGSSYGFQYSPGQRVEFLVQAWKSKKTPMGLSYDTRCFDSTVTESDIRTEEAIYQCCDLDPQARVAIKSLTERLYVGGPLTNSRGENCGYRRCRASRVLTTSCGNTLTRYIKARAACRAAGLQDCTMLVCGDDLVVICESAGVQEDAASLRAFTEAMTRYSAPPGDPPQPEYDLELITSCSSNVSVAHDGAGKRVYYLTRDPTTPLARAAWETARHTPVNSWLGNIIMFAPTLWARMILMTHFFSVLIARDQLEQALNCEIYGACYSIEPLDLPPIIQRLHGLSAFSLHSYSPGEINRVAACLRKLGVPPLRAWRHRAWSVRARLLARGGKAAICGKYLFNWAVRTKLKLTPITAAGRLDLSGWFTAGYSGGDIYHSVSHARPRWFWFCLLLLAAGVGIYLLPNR

SMILES | inhibition of HCV NS5B RNA-dependent RNA polymerase [1] | solubility [2] [µg/mL] | % dissolved (kinetic dissolution) [3] | physical and chemical stability [4]
Cn1c(C2(NC(=O)c3ccc4c(C5CCCC5)c(-c5ncc(Br)cn5)n(C)c4c3)CCC2)nc2ccc(/C=C/C(=O)O)cc21 [Compound (1), (E)-3-[2-(1-{[2-(5-Bromo-pyrimidin-2-yl)-3-cyclopentyl-1-methyl-1H-indole-6-carbonyl]-amino}-cyclobutyl)-3-methyl-3H-benzimidazol-5-yl]-acrylic acid] | selective and potent inhibitor | < 0.2 | – | –
Cn1c(C2(NC(=O)c3ccc4c(C5CCCC5)c(-c5ncc(Br)cn5)n(C)c4c3)CCC2)nc2ccc(/C=C/C(=O)[O-])cc21.[Na+] [amorphous Compound (1) sodium salt] | – | – | about 35% | acceptable physical and chemical stability
